Laboratory results published in patent US9850521B2 (Agilent Technologies, Inc., priority 2014, dated 2017).
“Also recorded” adds a separate entry of the source.

Biological target: Cas9 (Streptococcus pyogenes serotype M1, UniProt Q99ZW2)
Experiment: Cas9 plasmid DNA cleavage assay, testing of surfactants
Assay type: biochemical
Details: for effect on Cas9 enzyme activity: FIG. 4, versus absence of surfactants/detergents, two RNA guides; for % cleavage: linearized pKan-C1 substrate DNA, 30 min at 30° C.
Experimental: The reactions were stopped by heat inactivation of the enzyme at 65° C. for 15 minutes. Cleavage reactions were analyzed by Agilent Tape Station using Genomic Screen Tapes.
Reaction mixtures were incubated at 30° C. for 30 minutes followed by heat inactivation of the enzyme. Table 1 lists the surfactants/detergents used at various concentrations and the resulting DNA template cleavage percentage.

Chain of Cas9 (Q99ZW2 whole entry): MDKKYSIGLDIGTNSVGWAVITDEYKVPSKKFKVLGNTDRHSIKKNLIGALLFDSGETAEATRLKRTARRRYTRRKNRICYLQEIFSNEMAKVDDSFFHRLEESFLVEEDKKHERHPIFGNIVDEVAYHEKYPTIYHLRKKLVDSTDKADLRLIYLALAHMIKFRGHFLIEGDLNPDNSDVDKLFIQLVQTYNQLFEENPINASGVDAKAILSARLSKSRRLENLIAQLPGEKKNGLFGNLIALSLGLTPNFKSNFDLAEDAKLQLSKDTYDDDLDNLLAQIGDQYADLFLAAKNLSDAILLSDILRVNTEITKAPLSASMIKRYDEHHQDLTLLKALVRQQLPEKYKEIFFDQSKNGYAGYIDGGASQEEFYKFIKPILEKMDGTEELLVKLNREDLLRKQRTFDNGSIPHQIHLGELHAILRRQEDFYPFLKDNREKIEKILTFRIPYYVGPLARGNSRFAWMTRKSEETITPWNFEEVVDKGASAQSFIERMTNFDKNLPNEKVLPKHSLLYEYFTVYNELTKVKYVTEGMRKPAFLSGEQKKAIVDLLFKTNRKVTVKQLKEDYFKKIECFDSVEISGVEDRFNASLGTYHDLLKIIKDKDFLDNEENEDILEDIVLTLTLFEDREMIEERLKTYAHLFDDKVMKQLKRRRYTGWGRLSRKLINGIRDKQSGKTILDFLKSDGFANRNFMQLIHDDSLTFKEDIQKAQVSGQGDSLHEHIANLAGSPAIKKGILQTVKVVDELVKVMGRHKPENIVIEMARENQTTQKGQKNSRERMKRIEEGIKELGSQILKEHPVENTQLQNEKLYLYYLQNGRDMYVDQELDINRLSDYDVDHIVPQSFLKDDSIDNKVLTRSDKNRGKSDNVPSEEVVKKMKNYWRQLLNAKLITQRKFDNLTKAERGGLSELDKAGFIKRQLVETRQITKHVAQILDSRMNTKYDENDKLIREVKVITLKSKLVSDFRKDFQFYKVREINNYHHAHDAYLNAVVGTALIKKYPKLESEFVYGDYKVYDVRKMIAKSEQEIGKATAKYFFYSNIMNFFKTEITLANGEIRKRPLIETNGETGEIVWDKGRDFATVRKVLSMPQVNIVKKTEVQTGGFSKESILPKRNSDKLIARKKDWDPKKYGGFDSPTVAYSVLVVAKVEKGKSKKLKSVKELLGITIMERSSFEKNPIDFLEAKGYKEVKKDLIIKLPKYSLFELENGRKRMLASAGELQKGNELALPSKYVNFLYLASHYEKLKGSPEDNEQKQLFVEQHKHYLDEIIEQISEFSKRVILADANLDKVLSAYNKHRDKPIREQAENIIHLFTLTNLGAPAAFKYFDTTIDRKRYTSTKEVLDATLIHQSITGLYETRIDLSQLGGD

Row | Molecule | effect on Cas9 enzyme activity | % cleavage (Guide 601, detergent 0.025%) [%] | % cleavage (Guide 601, detergent 0.05%) [%] | % cleavage (Guide 601, detergent 0.1%) [%] | % cleavage (Guide 601, detergent 0.2%) [%] | % cleavage (Kan C1 Guide, detergent 0.025%) [%] | % cleavage (Kan C1 Guide, detergent 0.05%) [%] | % cleavage (Kan C1 Guide, detergent 0.1%) [%] | % cleavage (Kan C1 Guide, detergent 0.2%) [%]
1 | octylphenoxypolyethoxyethanol [Triton X 100] | improved enzyme activity; also recorded: significantly increased Cas9 activity | 0.60 | 0.60 | 0.59 | 0.65 | 0.54 | 0.51 | 0.52 | 0.61
2 | C[C@H](CCC(=O)NCCC[N+](C)(C)CC(O)CS(=O)(=O)[O-])[C@H]1CC[C@H]2[C@@H]3[C@H](O)C[C@@H]4C[C@H](O)CC[C@]4(C)[C@H]3C[C@H](O)[C@]12C (stereo partly drawn) [Chapso, reference compound] | had no effect on Cas9 activity | 0.52 | 0.50 | 0.51 | 0.54 | 0.43 | 0.43 | 0.45 | 0.44
